Reference: paper PMC7492732, “Offloading Role of a Discrete Thioesterase in Type II Polyketide Biosynthesis” (mBio, 2020)

Target: T1, FscTE (Streptomyces sp. FR-008, UniProt Q6W5Q5)
T1 construct: His6 tag, pET28a, expressed in E. coli BL21(DE3)/pGro7
T1 sequence (Q6W5Q5 1-285): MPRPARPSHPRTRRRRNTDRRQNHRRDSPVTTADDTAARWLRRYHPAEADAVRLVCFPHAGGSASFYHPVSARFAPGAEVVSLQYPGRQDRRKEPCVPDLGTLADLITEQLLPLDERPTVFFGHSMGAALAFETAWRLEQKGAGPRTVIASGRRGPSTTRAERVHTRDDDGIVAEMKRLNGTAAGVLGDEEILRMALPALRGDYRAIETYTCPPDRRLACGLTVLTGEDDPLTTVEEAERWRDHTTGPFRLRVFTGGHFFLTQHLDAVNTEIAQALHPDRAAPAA
Assay: DTNB spectrophotometric assay at […] nm
Assay type: biochemical

Question: With CCCC(=O)SCCNC(C)=O [butyryl-SNAC] as the molecule, how does the “DTNB spectrophotometric assay at 412 nm” value read?
Answer: A similar phenomenon was observed when butyryl-SNAC was used as a substrate
